The text below walks through data of ChEMBL document CHEMBL1146459, “Production of biologically active taxoids by a callus culture of Taxus cuspidata” (2004).

The test system of one experiment is KM12. As to the kind of experiment: Growth inhibition of human KM12 cells after 48 hrs by SRB assay. The class given is functional. Particulars: KM12, 48 h.
The subject of a further experiment is MDA-MB-231. As to the kind of experiment: Growth inhibition of human MDA-MB-231 cells after 48 hrs by SRB assay. As to conditions: MDA-MB-231, 48 h. It is filed as functional. A general note: Sulforhodamine B stains cellular protein and so reports cell mass.
Where [1] appears, read: read-out: LC50 (the source's name).

SMILES strings stand for the structures.

On to `C=C1[C@@H](OC(C)=O)CC[C@@]2(C)C[C@H](OC(C)=O)C3=C(C)C[C@H](OC(=O)C(C)CC)[C@@H]([C@@H](OC(C)=O)[C@H]12)C3(C)C` (stereo partly specified), for which the GI50 in the experiment with KM12 (read-out: GI50) was 42 µM; in the experiment with KM12 (read-out: pGI50 (converted)) it was 41.7 µM; in the experiment with MDA-MB-231 (read-out: GI50) it was 18 µM; in the experiment with MDA-MB-231 (read-out: pGI50 (converted)), 18.2 µM. Moreover, the CC50 with KM12 (setting [1]), with KM12 (read-out: pLC50 (converted)) and in the experiment on MDA-MB-231 (setting [1]) was more than 100 µM each time. Further, the TGI is more than 100 µM in the experiment on KM12 (read-out: TGI), 100 µM with KM12 (read-out: pTGI (converted)), more than 100 µM in the experiment on MDA-MB-231 (read-out: TGI) and 100 µM in the experiment on MDA-MB-231 (read-out: pTGI (converted)).
Turning to `C=C1[C@@H](OC(C)=O)CC[C@]2(C)[C@@H]1C[C@@H]1C[C@H](OC(C)=O)C(C)=C([C@@H](O)[C@@H]2OC(=O)/C=C/c2ccccc2)C1(C)C`, the GI50 in the experiment with KM12 (read-out: GI50) was 6.4 µM; in the experiment on KM12 (read-out: pGI50 (converted)), 6.46 µM; in the experiment with MDA-MB-231 (read-out: GI50), 16 µM; in the experiment with MDA-MB-231 (read-out: pGI50 (converted)), 16.2 µM. The CC50 with KM12 (setting [1]) and with KM12 (read-out: pLC50 (converted)) was more than 100 µM throughout. Moreover, the TGI in the experiment with KM12 (read-out: TGI), with KM12 (read-out: pTGI (converted)), in the experiment on MDA-MB-231 (read-out: TGI) and in the experiment on MDA-MB-231 (read-out: pTGI (converted)) was 100 µM in each case.
